Assays:
human BRD4 bromodomain 1 = human BRD4 bromodomain 1 (Homo sapiens (Human), UniProt O60885); experiment: Bromodomain binding assay (BRD4 Alpha-screen); details: acetylated histone H4 peptide
Procedure: Bromodomain binding assays were carried out in Reaction Biology (PA, USA) to test the degrees of the inventive compounds in inhibiting the human BRD4 bromodomain 1 by Alpha-screen assay method.
Recombinant human BRD4 bromodomain 1 expressed in E. coli with N-terminal His-tag was used as the enzyme target.
A synthetic peptide ([…]-GSGSK-biotin) containing 1 to 21th amino acids of histone H4 acetylated at lysine 5, 8, 12 and 16 and conjugated to biotin was purchased from Millipore.
BRD4-1 (44 to 170th amino acids; Genbank Accession # NM_058243) was expressed in E. coli with N-terminal His-tag (see, Ni-NTA spin Kit Handbook (Qiagen), second edition, January, 2008). Nickel-Chelate ALPHA acceptor beads (Perkin Elmer) were used to specifically bind BRD4-1, and ALPHA streptavidin donor beads (Perkin Elmer) were used because they specifically recognized the biotinylated H4 peptide.
BRD binding assays were performed in a mixture comprising 50 mM Hepes (pH7.5), 100 mM NaCl, 0.05% CHAPS, 0.1% BSA, and 1% DMSO. After an assay reaction time of 60 min at 25° C., binding was measured with streptavidin donor beads and nickel-chelate acceptor beads. ALPHA signal was detected on Enspire (Ex/Em=680/520-620 nm). IC50 values were calculated from the fit of the dose-response curves. All IC50 values represent geometric mean values of a minimum of four determinations. These assays generally produced results within 3-fold of the reported mean.

[1] = system: LnCAP (human prostatic adenocarcinoma cell line); experiment: Anti-proliferative activity test (CellTiter-Glo), LnCAP; assay type: cell-based; details: first value of LnCAP/MV4-11 cell, read-out: Cell proliferation IC50 (LnCAP)
Procedure: (§1) IC50 (uM) of the compounds obtained in Examples 1 to 18 against hematological cancer cells and solid tumors was measured for identifying anti-proliferative activities.
(§2) A human prostatic adenocarcinoma cell line, LnCAP (ATCC®, CRL-1740) and human leukemia cell line MV4-11 (ATCC®, CRL-9591) were used to test the degrees of the compounds 1 to 18 in inhibiting the cancer cell growth. The testing cell concentration was adjusted to 6.7×10^3 cells/ml with a culture medium supplemented with 10% FBS, in the temperature of 37° C., 5% CO2 and 95% humidity. Culture media and FBS were purchased from GIBCO. 90 μL of cell suspensions thus obtained was added to two 96-well plates with the final cell density of 600 cells/well, followed by addition of 10 μL of culture medium to each well of plate. The plates were incubated overnight in a humidified incubator at 37° C. with 5% CO2.
(§3) Compounds 1 to 18 were each dissolved with dimethylsulfoxide (DMSO) or phosphate buffer solution (PBS) as a stock solution, and 200× solutions of test compound (2 mM) using DMSO were prepared. Then, the DMSO solution thus obtained was diluted 20-fold with culture medium or PBS to obtain 10× working solution. 10 μL of 10× working solution (drug solution) was dispensed to each well (triplicate for each concentration). The final concentration of DMSO in culture medium was 0.5% [v/v].
(§4) Cell viability was determined using CellTiter-Glo® (CTG) assay. 100 μL of CellTiter-Glo® was added to the equal volume of the cultured cells to read luminescence in EnVision Multi Label Reader.

[2] = system: MV4-11 (human leukemia cell line); experiment: Anti-proliferative activity test (CellTiter-Glo), MV4-11; assay type: cell-based; details: second value of LnCAP/MV4-11 cell, read-out: Cell proliferation IC50 (MV4-11)
Procedure: as §1, §2, §3, §4

[3] = Mouse liver microsomal stability/clearance; assay type: in vitro ADME
Procedure: (§5) Human and mouse liver microsomal clearance assays were carried out in CROWN Biosciences (Taicang, China). The human liver microsomes (Cat No. X008067, Lot No. KQB) and mouse liver microsomes (Cat No. M1000, Lot No. 1210302) were purchased from Celsis and Xenotech, respectively.
(§6) 5 μL of test compound stock solution was diluted with 495 μL of 1:1 Methanol/Water (final concentration: 100 μM, 50% MeOH) and combined with 534 μL of the respective liver microsome solution (final concentration: 1.111 μM, 0.555% MeOH). The final concentration of the liver microsome solution was 0.7 mg protein/mL.
(§7) Incubations of the liver microsome solutions were performed in a 96 well plate at 37° C. 90 μL of the liver microsome solutions were added to Blank, and 90 μL of working solution of the test compound was added to all plates except the Blank.
(§8) All plates thus obtained were warmed in water bath at 37° C. for 10 min, and 10 μL of NADPH co-factor solution comprising 42 mg of β-nicotinamide adenine dinucleotide phosphate (Sigma Cat. No. N0505 Lot 020M7009V), 84 mg of isocitric acid (Sigma Cat. No. 11252 Lot 119K1099) and 0.478 mL of isocitric dehydrogenase (Sigma Cat. No. 12002 Lot 086K7055, 15 units/mg protein, warmed in water bath at 37° C. for 5 min was added to the plates. The resulting plates were incubated at 37° C. in the following order: T60 (The test compounds were incubated with the liver microsomal solution and NADPH for 60 min at 37° C.), T30 (such as for 30 min.), and T10 (such as for 10 min.). 300 μL of a cold (4° C.) stop solution (acetonitrile (ACN) including 500 nM of tolbutamide as internal standard) and 10 μL of NADPH co-factor solution to starting plate (T0: 100% of the parent compound without any reaction) were added to the plates. The reaction was stopped by adding 300 μL of the cold (4° C.) stop solution to the other plates in the following order: T10 first, then T30 and T60.
(§9) The samples were centrifuged at 4,000 rpm for 20 min and transferred to Bioanalytical Services for liquid chromatography-mass spectrometry (LC-MS)/MS (Waters UPLC/API 4000, 10 μL injection) analysis.

[4] = Human liver microsomal stability/clearance; assay type: in vitro ADME
Procedure: as §5, §6, §7, §8, §9

[5] = mouse liver microsomes, second value of Human/Mouse cell, read-out: Liver microsomal clearance (Mouse)
[6] = human liver microsomes, first value of Human/Mouse cell, read-out: Liver microsomal clearance (Human)

Compound	IC50 (human BRD4 bromodomain 1) [µM]	IC50 [1] [µM]	IC50 [2] [µM]	microsomal CLint at 1 µM [3, 5] [µL/min/mg]	microsomal CLint at 1 µM [4, 6] [µL/min/mg]	microsomal CLint at 1 µM ([3]; mouse, microsomes) [µL/min/mg]	microsomal CLint at 1 µM ([4]; human, microsomes) [µL/min/mg]
CCCS(=O)(=O)OC[C@@H]1N=C(c2ccc(Cl)cc2)c2cc(OC)ccc2-n2c(C)nnc21 [Compound 3, (R)-(6-(4-chlorophenyl)-8-methoxy-1-methyl-4H-benzo[f][1,2,4]triazolo[4,3-a][1,4]diazepin-4-yl)methyl propane-1-sulfonate]	0.39	0.83	1.81	39.7	71.3	–	–
COc1ccc2c(c1)C(c1ccc(Cl)cc1)=N[C@@H](COS(=O)(=O)C1CC1)c1nnc(C)n1-2 [Compound 4, (R)-(6-(4-chlorophenyl)-8-methoxy-1-methyl-4H-benzo[f][1,2,4]triazolo[4,3-a][1,4]diazepin-4-yl)methyl cyclopropanesulfonate]	0.42	0.13	0.69	8.9	6.3	–	–
COc1ccc2c(c1)C(c1ccc(Cl)cc1)=N[C@@H](COS(=O)(=O)c1ccccc1)c1nnc(C)n1-2 [Compound 5, (R)-(6-(4-chlorophenyl)-8-methoxy-1-methyl-4H-benzo[f][1,2,4]triazolo[4,3-a][1,4]diazepin-4-yl)methyl benzenesulfonate]	0.9	–	–	–	–	–	–
Cc1nnc2n1-c1ccccc1C(c1ccc(Cl)cc1)=N[C@H]2COS(C)(=O)=O [Compound 6, (R)-(6-(4-chlorophenyl)-1-methyl-4H-benzo[f][1,2,4]triazolo[4,3-a][1,4]diazepin-4-yl)methyl methanesulfonate]	1.41	–	–	–	–	–	–
COc1ccc2c(c1)C(c1ccc(Cl)cc1)=N[C@@H](COS(=O)(=O)N(C)C)c1nnc(C)n1-2 [Compound 9, (R)-(6-(4-chlorophenyl)-8-methoxy-1-methyl-4H-benzo[f][1,2,4]triazolo[4,3-a][1,4]diazepin-4-yl)methyl dimethylsulfamate]	0.28	1.9	1.49	86	126	–	–
CNS(=O)(=O)OC[C@@H]1N=C(c2ccc(Cl)cc2)c2cc(OC)ccc2-n2c(C)nnc21 [Compound 10, (R)-(6-(4-chlorophenyl)-8-methoxy-1-methyl-4H-benzo[f][1,2,4]triazolo[4,3-a][1,4]diazepin-4-yl)methyl methylsulfamate]	0.4	0.57	0.35	21	29	–	–
Cc1nnc2n1-c1ccc(-c3cnn(CC(N)=O)c3)cc1C(c1ccc(Cl)cc1)=N[C@H]2COS(C)(=O)=O [Compound 12, (R)-(8-(1-(2-amino-2-oxoethyl)-1H-pyrazol-4-yl)-6-(4-chlorophenyl)-1-methyl-4H-benzo[f][1,2,4]triazolo[4,3-a][1,4]diazepin-4-yl)methyl methanesulfonate]	0.11	44.1	1.07	6.9	5.6	–	–
Cc1nnc2n1-c1ccc(-c3cnn(CC(=O)N(C)C)c3)cc1C(c1ccc(Cl)cc1)=N[C@H]2COS(C)(=O)=O [Compound 13, (R)-(6-(4-chlorophenyl)-8-(1-(2-(dimethylamino)-2-oxoethyl)-1H-pyrazol-4-yl)-1-methyl-4H-benzo[f][1,2,4]triazolo[4,3-a][1,4]diazepin-4-yl)methyl methanesulfonate]	0.11	0.43	0.29	7.4	12.3	–	–
Cc1nnc2n1-c1ccc(C(=O)NCCO)cc1C(c1ccc(Cl)cc1)=N[C@H]2COS(C)(=O)=O [Compound 14, (R)-(6-(4-chlorophenyl)-8-((2-hydroxyethyl)carbamoyl)-1-methyl-4H-benzo[f][1,2,4]triazolo[4,3-a][1,4]diazepin-4-yl)methyl methanesulfonate]	0.38	–	–	6.3	8.3	–	–
Cc1sc2c(c1C)C(c1ccc(Cl)cc1)=N[C@@H](COS(N)(=O)=O)c1nnc(C)n1-2 [Compound 16, (R)-(4-(4-chlorophenyl)-2,3,9-trimethyl-6H-thieno[3,2-f][1,2,4]triazolo[4,3-a][1,4]diazepin-6-yl)methyl sulfamate]	0.25	–	–	–	–	9	10
Cc1sc2c(c1C)C(c1ccc(Cl)cc1)=N[C@@H](COS(=O)(=O)N(C)C)c1nnc(C)n1-2 [Compound 17, (R)-(4-(4-chlorophenyl)-2,3,9-trimethyl-6H-thieno[3,2-f][1,2,4]triazolo[4,3-a][1,4]diazepin-6-yl)methyl dimethylsulfamate]	0.9	–	–	–	–	138	171
CNS(=O)(=O)OC[C@@H]1N=C(c2ccc(Cl)cc2)c2c(sc(C)c2C)-n2c(C)nnc21 [Compound 18, (R)-(4-(4-chlorophenyl)-2,3,9-trimethyl-6H-thieno[3,2-f][1,2,4]triazolo[4,3-a][1,4]diazepin-6-yl)methyl methylsulfamate]	0.16	–	–	–	–	49	51

Source: patent US9884874B2, “Bromodomain-inhibiting compounds and pharmaceutical composition comprising same for preventing or treating a cancer” (KAINOS MEDICINE, INC., priority 2014, dated 2018)
